# Test results as given in patent publication US10144737B2 (ETERNITY BIOSCIENCE INC., priority 2014, dated 2018).
# Experiments:
# TMD-8 cells = experiment: Cell proliferation assay (CellTiter-Glo), TMD-8 cells; assay type: cell-based; conditions: Homo sapiens, TMD8, 120 h, 5-day treatment, read-out: TMD8 cell growth (GI50 μM)
# Experimental: Cell proliferation assay: TMD-8 and SU-DHL-1 cells were maintained at 37° C. in a humidified atmosphere with 5% CO2 in the recommended medium and serum concentrations. For cell proliferation assay, cells were seeded in 96-well pates at a density of 5,000 to 10,000 cells per well and cultured overnight at 37° C. in recommended medium supplemented with 5-10% FBS. On the next day, the test articles at various concentrations or vehicle control (0.5% DMSO) were added into cell culture. After 5-day treatment, the growth of cells was assayed by the CellTiter-Glo® Luminestceaent Cell Viability Assay (Promega). IC50 values were calculated using GraphPad Prism by plotting the logarithm of the concentration versus percent inhibition of cell growth as compared with the vehicle control.
# Btk = molecular target: T1, Btk (Homo sapiens, UniProt Q06187); experiment: Btk kinase assay (ADP-Glo); assay type: biochemical; conditions: ADP-Glo Btk kinase assay kit; ATP 1.2 μM; 60 minutes at room temperature
# T1 construct: purchased Promega (Madison, Wis.)
# T1 sequence (Q06187 whole entry): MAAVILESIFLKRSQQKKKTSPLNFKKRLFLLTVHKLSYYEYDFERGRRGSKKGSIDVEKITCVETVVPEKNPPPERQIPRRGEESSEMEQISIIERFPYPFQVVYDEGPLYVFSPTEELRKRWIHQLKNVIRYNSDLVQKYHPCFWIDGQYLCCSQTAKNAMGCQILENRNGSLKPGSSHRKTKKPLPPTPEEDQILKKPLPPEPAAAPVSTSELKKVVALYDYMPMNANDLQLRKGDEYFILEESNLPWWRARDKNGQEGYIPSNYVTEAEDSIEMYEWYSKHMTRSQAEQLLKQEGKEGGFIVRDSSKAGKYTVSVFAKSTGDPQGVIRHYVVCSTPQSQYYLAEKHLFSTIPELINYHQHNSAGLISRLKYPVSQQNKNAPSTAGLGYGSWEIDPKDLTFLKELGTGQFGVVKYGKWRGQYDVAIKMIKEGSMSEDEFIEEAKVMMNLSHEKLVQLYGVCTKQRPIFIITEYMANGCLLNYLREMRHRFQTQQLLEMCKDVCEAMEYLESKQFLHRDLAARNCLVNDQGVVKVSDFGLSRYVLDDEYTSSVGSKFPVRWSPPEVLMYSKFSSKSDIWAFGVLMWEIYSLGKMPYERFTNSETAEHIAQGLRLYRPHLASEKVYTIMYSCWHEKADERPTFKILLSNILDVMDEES
# Experimental: Btk kinase assay—The Btk kinase assay was performed using a ADP-Glo Btk kinase assay kit purchased from Promega (Madison, Wis.). The assay was conducted according to the protocols provided in the assay kit. In brief, the enzyme reaction was carried out in the kinase reaction buffer containing Btk (2 ng/μl), ATP (1.2 μM), poly GT peptide (0.3 μM), DTT (40 nM), MnCl2 (1.4 mM), and 1 xkinase buffer (included in the kit) in the presence or absence of the tested articles at various concentrations in 384-well plate at room temperature (22±1° C.) for 60 minutes. The final reaction volume for each reaction was 10 μl. Then, 4 μl of ADP-Glo reagent (included in the kit) was added into the reaction and the plate was further incubated for another 40 minutes to terminate the reaction and deplete the remaining ATP. Finally, 10 μl of the kinase detection reagent was added into each reaction to simultaneously convert ADP to ATP and allow the newly synthesized ATP to be measured by a plate-reading luminometer (Victor X5 2030 multilabel reader, PerkinElmer). IC50 value was calculated using appropriate programs in GraphPad Prism by plotting the logarithm of the concentration versus percent inhibition as compared with a vehicle (DMSO) control.
Structure (SMILES),GI50 (TMD-8 cells) [µM],IC50 (Btk) [nM]
"CN(C)C/C=C/C(=O)N1CCC(Nc2ncnc3[nH]c(C#CCOc4ccccc4F)nc23)C1 (stereo not drawn) [Example 23, (E)-1-(3-((8-(3-(2-fluorophenoxy)prop-1-yn-1-yl)-9H-purin-6-yl)amino)pyrrolidin-1-yl)-4-(dimethylamino)but-2-en-1-one]",0.107,1.5
"C=CC(=O)N1CCC(Nc2ncnc3[nH]c(C#CCOc4ccc(Cl)cc4)nc23)C1 (stereo not drawn) [Example 19, 1-(3-((8-(3-(4-chlorophenoxy)prop-1-yn-1-yl)-9H-purin-6-yl)amino)pyrrolidin-1-yl)prop-2-en-1-one]",0.148,22
"C=CC(=O)Nc1cccc(Nc2ncnc3[nH]c(C#Cc4ccc(Cl)cc4)cc23)c1 [Example 105, N-(3-((6-((4-chlorophenyl)ethynyl)-7H-pyrrolo[2,3-d]pyrimidin-4-yl)amino)phenyl)acrylamide]",0.048,155
CNC/C=C/C(=O)N1CCC(Nc2ncnc3[nH]c(C#CCOc4ccccc4)cc23)C1 (stereo not drawn) [Example 35],0.95,0.4
"CC#CC(=O)N1CC[C@@H](Nc2ncnc3[nH]c(C#CCOc4ccccc4F)cc23)C1 [Example 47, (R)-1-(3-((6-(3-(2-fluorophenoxy)prop-1-yn-1-yl)-7H-pyrrolo[2,3-d]pyrimidin-4-yl)amino)pyrrolidin-1-yl)but-2-yn-1-one]",0.008,136
"O=C(C1CC1)N1CC[C@@H](Nc2ncnc3[nH]c(C#CCOc4ccccc4F)cc23)C1 [Example 93, (R)-cyclopropyl(3-((6-(3-(2-fluorophenoxy)prop-1-yn-1-yl)-7H-pyrrolo[2,3-d]pyrimidin-4-yl)amino)pyrrolidin-1-yl)methanone]",4.2,578
"C=CC(=O)N1CC[C@@H](Nc2ncnc3[nH]c(C#Cc4ccccc4)cc23)C1 [Example 50, (R)-1-(3-((6-(phenylethynyl)-7H-pyrrolo[2,3-d]pyrimidin-4-yl)amino)pyrrolidin-1-yl)prop-2-en-1-one]",0.009,11
"C=CC(=O)N1CC[C@@H](Nc2ncnc3[nH]c(C#Cc4cccc(C(F)(F)F)c4)cc23)C1 [Example 68, (R)-1-(3-((6-((3-trifluoromethylphenyl)ethynyl)-7H-pyrrolo[2,3-d]pyrimidin-4-yl)amino)pyrrolidin-1-yl)prop-2-en-1-one]",0.003,187
"CN(C)C/C=C/C(=O)N1CC[C@@H](Nc2ncnc3[nH]c(C#CCOc4ccccc4)cc23)C1 [Example 41, (R,E)-4-(dimethylamino)-1-(3-((6-(3-phenoxyprop-1-yn-1-yl)-7H-pyrrolo[2,3-d]pyrimidin-4-yl)amino)pyrrolidin-1-yl)but-2-en-1-one]",0.069,0.08
"C=CC(=O)N1CCC(Nc2ncnc3[nH]c(C#CCOc4ccccc4F)nc23)C1 (stereo not drawn) [Example 16, 1-(3-((8-(3-(2-fluorophenoxy)prop-1-yn-1-yl)-9H-purin-6-yl)amino)pyrrolidin-1-yl)prop-2-en-1-one]",0.003,0.6
"O=C([C@H]1C[C@H]1F)N1CC[C@@H](Nc2ncnc3[nH]c(C#CCOc4ccccc4F)cc23)C1 [Example 94, ((1R,2R)-2-fluorocyclopropyl)((R)-3-((6-(3-(2-fluorophenoxy)prop-1-yn-1-yl)-7H-pyrrolo[2,3-d]pyrimidin-4-yl)amino)pyrrolidin-1-yl)methanone]",3.58,346
"C=CC(=O)N1CCN(c2ncnc3[nH]c(C#CCOCc4ccccc4)cc23)CC1 [Example 4, 1-(4-(6-(3-(benzyloxy)prop-1-yn-1-yl)-7H-pyrrolo[2,3-d]pyrimidin-4-yl)piperazin-1-yl)prop-2-en-1-one]",0.157,60
"O=C(/C=C/CN1CCOCC1)N1CCN(c2ncnc3[nH]c(C#CCOc4ccccc4)nc23)CC1 [Example 8, (E)-4-morpholino-1-(4-(8-(3-phenoxyprop-1-yn-1-yl)-9H-purin-6-yl)piperazin-1-yl)but-2-en-1-one]",0.357,332
"C=CC(=O)N1CC[C@@H](Nc2ncnc3[nH]c(C#CCOc4ccccc4Cl)cc23)C1 [Example 43, (R)-1-(3-((6-(3-(2-chlorophenoxy)prop-1-yn-1-yl)-7H-pyrrolo[2,3-d]pyrimidin-4-yl)amino)pyrrolidin-1-yl)prop-2-en-1-one]",0.001,0.14
"C=CC(=O)N1CC[C@@H](Nc2ncnc3[nH]c(C#CCOc4ccccc4OC(F)(F)F)cc23)C1 [Example 81, (R)-1-(3-((6-(3-(2-(trifluoromethoxy)phenoxy)prop-1-yn-1-yl)-7H-pyrrolo[2,3-d]pyrimidin-4-yl)amino)pyrrolidin-1-yl)prop-2-en-1-one]",0.003,33
"C=CC(=O)N1CCC[C@@H](Nc2ncnc3[nH]c(C#Cc4ccc5c(c4)OCO5)cc23)C1 [Example 97, (R)-1-(3-((6-(benzo[d][1,3]dioxol-5-ylethynyl)-7H-pyrrolo[2,3-d]pyrimidin-4-yl)amino)piperidin-1-yl)prop-2-en-1-one]",0.004,27
"C=CC(=O)N1CC[C@@H](Nc2ncnc3[nH]c(C#Cc4ccc(F)cc4)cc23)C1 [Example 62, (R)-1-(3-((6-((4-fluorophenyl)ethynyl)-7H-pyrrolo[2,3-d]pyrimidin-4-yl)amino)pyrrolidin-1-yl)prop-2-en-1-one]",0.024,52
"C=CC(=O)N1CC[C@@H](Nc2ncnc3[nH]c(C#Cc4ccc(Cl)c(Cl)c4)cc23)C1 [Example 64, (R)-1-(3-((6-((3,4-dichlorophenyl)ethynyl)-7H-pyrrolo[2,3-d]pyrimidin-4-yl)amino)pyrrolidin-1-yl)prop-2-en-1-one]",0.005,0.2
"C/C=C/C(=O)N1CC[C@@H](Nc2ncnc3[nH]c(C#CCOc4ccccc4F)cc23)C1 [Example 48, (R,E)-1-(3-((6-(3-(2-fluorophenoxy)prop-1-yn-1-yl)-7H-pyrrolo[2,3-d]pyrimidin-4-yl)amino)pyrrolidin-1-yl)but-2-en-1-one]",0.088,432
"COc1ccc(OCC#Cc2nc3c(NC4CCN(C(=O)/C=C/CN(C)C)C4)ncnc3[nH]2)cc1 (stereo not drawn) [Example 30, (E)-1-(3-((8-(3-(4-methoxyphenoxy)prop-1-yn-1-yl)-9H-purin-6-yl)amino)pyrrolidin-1-yl)-4-(dimethylamino)but-2-en-1-one]",1.2,19
"C=CC(=O)N1CCC(Nc2ncnc3[nH]c(C#CCOc4ccccc4Cl)nc23)C1 (stereo not drawn) [Example 18, 1-(3-((8-(3-(2-chlorophenoxy)prop-1-yn-1-yl)-9H-purin-6-yl)amino)pyrrolidin-1-yl)prop-2-en-1-one]",0.002,0.02
"C=CC(=O)N1CC[C@@H](Nc2ncnc3[nH]c(C#Cc4cccs4)cc23)C1 [Example 75, (R)-1-(3-((6-(thiophen-2-ylethynyl)-7H-pyrrolo[2,3-d]pyrimidin-4-yl)amino)pyrrolidin-1-yl)prop-2-en-1-one]",0.0049,30
"C=CC(=O)N1CC[C@@H](Nc2ncnc3[nH]c(C#CCOc4ccccc4OC)nc23)C1 [Example 102, (R)-1-(3-((8-(3-(2-methoxyphenoxy)prop-1-yn-1-yl)-9H-purin-6-yl)amino)pyrrolidin-1-yl)prop-2-en-1-one]",0.004,0.2
"O=C(/C=C/CN1CCOCC1)N1CCC(Nc2ncnc3[nH]c(C#CCOc4ccccc4)cc23)C1 (stereo not drawn) [Example 36, (E)-4-morpholino-1-(3-((6-(3-phenoxyprop-1-yn-1-yl)-7H-pyrrolo[2,3-d]pyrimidin-4-yl)amino)pyrrolidin-1-yl)but-2-en-1-one]",0.552,127
"C=CC(=O)N1CC[C@@H](Nc2ncnc3[nH]c(C#Cc4ccccc4OC)cc23)C1 [Example 59, (R)-1-(3-((6-((2-methoxyphenyl)ethynyl)-7H-pyrrolo[2,3-d]pyrimidin-4-yl)amino)pyrrolidin-1-yl)prop-2-en-1-one]",1.97,742
"C=CC(=O)N1CCC(Nc2ncnc3[nH]c(C#CCOc4ccc(F)c(F)c4)nc23)C1 (stereo not drawn) [Example 14, 1-(3-((8-(3-(3,4-difluorophenoxy)prop-1-yn-1-yl)-9H-purin-6-yl)amino)pyrrolidin-1-yl)prop-2-en-1-one]",0.134,15
"C=CC(=O)N1CC[C@@H](Nc2ncnc3[nH]c(C#CCOc4cccc(F)c4F)nc23)C1 [Example 99, (R)-1-(3-((8-(3-(2,3-difluorophenoxy)prop-1-yn-1-yl)-9H-purin-6-yl)amino)pyrrolidin-1-yl)prop-2-en-1-one]",0.001,0.3
